This passage reports IC50 and DC50 results from patent publication US20230117034A1, “PYRAZOLOTRIAZINES” (Bayer Aktiengesellschaft, priority 2019, published 2023).

Experiment [1] has as its system BRCA1 mRNA expression in MDA-MB-231 cells. In words: qRT-PCR assay: BRCA1 mRNA expression in MDA-MB-231. It is filed as cell-based, human. As to conditions: Homo sapiens, MDA-MB-231, Inhibition of BRCA1 mRNA expression in MDA-MB-231 cells; median; read-out: RTqPCR-MDA-MB-231, IC50, BRCA1 (median). Put shortly:
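First, cells are plated at 200,000 per well and allowed 24 h. Second, test substances are applied continuously for a further 24 h. Finally, RNA is isolated, 600 ng is converted to cDNA, and qPCR quantifies the transcript relative to GAPDH.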
(In general: Real-time PCR tracks product formation cycle by cycle.)

In experiment [2] the target is T1, CDK12 protein level in CAL-120 breast cancer cells (Homo sapiens, UniProt Q9NYV4).
T1 construct: endogenous in cells; host or cells: CAL-120 human breast cancer cells (DSMZ ACC 459)
T1 sequence (Q9NYV4 whole entry): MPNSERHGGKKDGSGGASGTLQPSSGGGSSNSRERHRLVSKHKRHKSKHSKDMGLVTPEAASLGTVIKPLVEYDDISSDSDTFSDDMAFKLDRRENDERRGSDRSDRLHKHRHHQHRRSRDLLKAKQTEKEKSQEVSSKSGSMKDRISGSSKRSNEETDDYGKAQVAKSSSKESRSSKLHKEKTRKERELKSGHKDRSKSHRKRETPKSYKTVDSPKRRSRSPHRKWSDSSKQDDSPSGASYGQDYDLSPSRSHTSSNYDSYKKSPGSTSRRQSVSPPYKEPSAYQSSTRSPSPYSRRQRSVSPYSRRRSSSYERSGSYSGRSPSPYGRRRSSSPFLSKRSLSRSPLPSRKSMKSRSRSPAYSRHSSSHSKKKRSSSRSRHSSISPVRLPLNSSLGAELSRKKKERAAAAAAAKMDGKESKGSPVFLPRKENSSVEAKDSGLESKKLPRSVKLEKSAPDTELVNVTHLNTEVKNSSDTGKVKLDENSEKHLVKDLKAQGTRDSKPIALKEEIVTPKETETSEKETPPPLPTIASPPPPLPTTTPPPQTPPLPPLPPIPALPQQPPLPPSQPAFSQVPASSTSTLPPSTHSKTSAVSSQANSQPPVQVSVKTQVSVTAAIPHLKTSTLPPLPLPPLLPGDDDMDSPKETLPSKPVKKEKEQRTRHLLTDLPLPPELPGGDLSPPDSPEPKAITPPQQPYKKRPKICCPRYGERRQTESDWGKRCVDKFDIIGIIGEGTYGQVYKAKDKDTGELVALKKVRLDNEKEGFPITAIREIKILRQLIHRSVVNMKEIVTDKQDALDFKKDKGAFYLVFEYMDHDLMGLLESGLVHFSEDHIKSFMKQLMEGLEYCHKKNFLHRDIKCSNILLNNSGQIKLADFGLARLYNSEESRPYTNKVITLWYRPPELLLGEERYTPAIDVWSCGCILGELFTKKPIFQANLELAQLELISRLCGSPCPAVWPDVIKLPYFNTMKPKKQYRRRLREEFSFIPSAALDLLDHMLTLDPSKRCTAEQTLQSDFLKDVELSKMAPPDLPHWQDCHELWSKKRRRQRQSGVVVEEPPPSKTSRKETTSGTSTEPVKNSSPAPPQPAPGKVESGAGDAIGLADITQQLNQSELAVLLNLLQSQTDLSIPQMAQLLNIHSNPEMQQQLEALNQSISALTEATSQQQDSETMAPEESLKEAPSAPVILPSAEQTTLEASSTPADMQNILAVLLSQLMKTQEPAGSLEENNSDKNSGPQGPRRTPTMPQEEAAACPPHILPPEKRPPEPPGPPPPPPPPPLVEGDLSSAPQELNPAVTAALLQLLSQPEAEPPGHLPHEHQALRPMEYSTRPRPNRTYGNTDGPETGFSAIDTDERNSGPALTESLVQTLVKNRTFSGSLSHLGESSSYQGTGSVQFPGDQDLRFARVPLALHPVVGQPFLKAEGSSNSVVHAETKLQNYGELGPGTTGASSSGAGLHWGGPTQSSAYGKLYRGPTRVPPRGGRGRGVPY
T1 sequence (O75909 whole entry partner): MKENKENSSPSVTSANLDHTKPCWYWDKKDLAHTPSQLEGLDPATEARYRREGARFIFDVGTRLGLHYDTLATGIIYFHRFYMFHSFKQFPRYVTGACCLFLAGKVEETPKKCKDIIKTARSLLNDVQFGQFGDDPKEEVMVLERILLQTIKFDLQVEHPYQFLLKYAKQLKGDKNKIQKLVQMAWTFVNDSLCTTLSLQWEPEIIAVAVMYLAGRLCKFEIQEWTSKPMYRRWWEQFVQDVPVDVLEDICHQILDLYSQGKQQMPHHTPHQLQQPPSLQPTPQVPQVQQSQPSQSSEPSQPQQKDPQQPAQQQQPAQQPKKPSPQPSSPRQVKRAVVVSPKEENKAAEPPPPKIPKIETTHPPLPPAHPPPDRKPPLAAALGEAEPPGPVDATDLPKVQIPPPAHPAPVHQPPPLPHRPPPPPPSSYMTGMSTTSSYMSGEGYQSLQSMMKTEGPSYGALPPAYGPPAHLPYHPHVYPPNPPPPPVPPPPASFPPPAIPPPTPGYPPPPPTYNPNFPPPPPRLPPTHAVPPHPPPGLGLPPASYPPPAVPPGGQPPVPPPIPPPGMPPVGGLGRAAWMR
Nature of the experiment: CDK12 protein level: Protein Simple (CDK12, CAL-120). It is filed as cell-based. As to conditions: CAL-120 cells, 18 h with compound, CDK12/HSP90 peak area ratio vs vehicle, median, read-out: CDK12 protein level in CAL-120 breast ca cells, DC50-[mol/l] (median). The method in brief: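 Cells grown 24 h, then treated with compounds for 18 h at 37° C against DMSO controls. Lysates (0.4 microgramms protein) run on Protein Simple 66-440 kDa size assay with CDK12 and HSP90 loading-control antibodies. CDK12/HSP90 peak-area ratios versus vehicle gave DC50 (50% reduction) by 4-parameter fit.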

The target of experiment [3] is T2, CYCLIN K (nuclear staining in CAL-120 cells) (Homo sapiens, UniProt O75909).
T2 construct: endogenous in cells; host or cells: CAL-120 human breast cancer cells (DSMZ ACC 459)
T2 sequence (O75909 whole entry): as the sequence (O75909 whole entry partner) above
T2 sequence (Q9NYV4 whole entry partner): as the sequence (Q9NYV4 whole entry) above
Nature of the experiment: CYCLIN K nuclear protein level: immunofluorescence high content analysis (CAL-120). It is filed as cell-based. As to conditions: 24 h, 50% reduction of nuclear CCNK staining intensity, median, read-out: CYCLIN K degradation IF, DC50-[mol/l] (median). Put shortly: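 Readout is automated confocal image analysis of nuclear cyclin K immunofluorescence (Hoechst nuclei) after PFA fixation. Cells were CAL-120, exposed to compound dose-response 24 h at 37 °C; values are DC50 for halving nuclear CCNK signal relative to DMSO and control wells.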

One may read the IC50 as the concentration at which inhibition is half-maximal. Consider `Brc1cnn2c(NCc3nnc(-c4ccccn4)[nH]3)nc(N3CCOCC3)nc12` [Example 54, 8-bromo-2-(morpholin-4-yl)-N-{[5-(pyridin-2-yl)-4H-1,2,4-triazol-3-yl]methyl}pyrazolo[1,5-a][1,3,5]triazin-4-amine], for which, in experiment [1], the IC50 came to 66.2 nM. Also, the DC50 in experiment [2] is under 30 nM; in experiment [3], 10.2 nM.

With `Brc1cnn2c(NCc3nc4ccccc4[nH]3)nc(N3CC4(COC4)C3)nc12` [Example 48, N-[(1H-benzimidazol-2-yl)methyl]-8-bromo-2-(2-oxa-6-azaspiro[3.3]heptan-6-yl)pyrazolo[1,5-a][1,3,5]triazin-4-amine], in experiment [1], the IC50 came out at 94.2 nM. For the same compound, the DC50 was under 30 nM in experiment [2] and 7.03 nM in experiment [3].

As to `Brc1cnn2c(NCc3nc4ccccc4[nH]3)nc(N3CCCC3)nc12` [Example 47, N-[(1H-benzimidazol-2-yl)methyl]-8-bromo-2-(pyrrolidin-1-yl)pyrazolo[1,5-a][1,3,5]triazin-4-amine], the IC50 in experiment [1] was determined as 23.2 nM. Also, the DC50 in experiment [2] is 58.9 nM; in experiment [3], 3.98 nM.

`Brc1cnn2c(NCc3nc4ccccc4[nH]3)nc(N3CCCCC3)nc12` [Example 46, N-[(1H-benzimidazol-2-yl)methyl]-8-bromo-2-(piperidin-1-yl)pyrazolo[1,5-a][1,3,5]triazin-4-amine]: the IC50 in experiment [1] is 12.5 nM. In addition, the DC50 was under 30 nM in experiment [2] and 1.54 nM in experiment [3].

As for `COc1cccc(-c2nnc(CNc3nc(N4CCOCC4)nc4c(Br)cnn34)[nH]2)c1` [Example 50, 8-bromo-N-{[5-(3-methoxyphenyl)-4H-1,2,4-triazol-3-yl]methyl}-2-(morpholin-4-yl)pyrazolo[1,5-a][1,3,5]triazin-4-amine], in experiment [1], the IC50 is 18.2 nM. Moreover, the DC50 in experiment [2] came to 39.6 nM; in experiment [3], 4.22 nM.

On to `Clc1cccc(-c2nnc(CNc3nc(N4CCOCC4)nc4c(Br)cnn34)[nH]2)c1` [Example 51, 8-bromo-N-{[5-(3-chlorophenyl)-4H-1,2,4-triazol-3-yl]methyl}-2-(morpholin-4-yl)pyrazolo[1,5-a][1,3,5]triazin-4-amine], for which the IC50 in experiment [1] is 5.8 nM. Moreover, the DC50 in experiment [3] was 3.15 nM.
